Assay results as given in PubChem BioAssay (NCI).
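Following 48 hours of exposure in 96-well plates, responses at five concentrations were used to interpolate endpoints linearly. TGI marks complete inhibition of growth.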

How the values were obtained:
Assay in all cases: NCI tumour cell line growth inhibition, 48 h
SW-620 colon = system: SW-620 colon
EKVX NSCLC = system: EKVX NSCLC
TK-10 renal = system: TK-10 renal
OVCAR-3 ovarian = system: OVCAR-3 ovarian
NCI-H522 lung = system: NCI-H522 lung
RXF 393 renal = system: RXF 393 renal
RPMI-8226 leukemia = system: RPMI-8226 leukemia
786-0 renal = system: 786-0 renal
MOLT-4 leukemia = system: MOLT-4 leukemia
U251 CNS = system: U251 CNS
IGROV1 ovarian = system: IGROV1 ovarian
K-562 leukemia = system: K-562 leukemia
SR leukemia = system: SR leukemia
SF-268 CNS = system: SF-268 CNS
SF-295 CNS = system: SF-295 CNS
SK-MEL-5 melanoma = system: SK-MEL-5 melanoma
MCF7 breast = system: MCF7 breast
NCI/ADR-RES ovarian = system: NCI/ADR-RES ovarian
MDA-MB-231 breast = system: MDA-MB-231 breast
MDA-MB-435 = system: MDA-MB-435

Compound | TGI (SW-620 colon) [µM] | TGI (EKVX NSCLC) [µM] | TGI (TK-10 renal) [µM] | TGI (OVCAR-3 ovarian) [µM] | TGI (NCI-H522 lung) [µM] | TGI (RXF 393 renal) [µM] | TGI (RPMI-8226 leukemia) [µM] | TGI (786-0 renal) [µM] | TGI (MOLT-4 leukemia) [µM] | TGI (U251 CNS) [µM] | TGI (IGROV1 ovarian) [µM] | TGI (K-562 leukemia) [µM] | TGI (SR leukemia) [µM] | TGI (SF-268 CNS) [µM] | TGI (SF-295 CNS) [µM] | TGI (SK-MEL-5 melanoma) [µM] | TGI (MCF7 breast) [µM] | TGI (NCI/ADR-RES ovarian) [µM] | TGI (MDA-MB-231 breast) [µM] | TGI (MDA-MB-435) [µM]
O=S(=O)(c1ccccc1)N1N=C2c3ccccc3CCC[C@H]2C1c1ccccc1 (some centres not stated) | > 100 | > 100 | > 100 | > 100 | > 100 | > 100 | > 100 | > 100 | > 100 | > 100 | > 100 | > 100 | > 100 | > 100 | > 100 | > 100 |  |  |  | 
CC1CN=C(N(C(=O)Nc2ccc(Cl)c(Cl)c2)c2ccccc2)S1 (configuration not stated) | > 100 | > 100 | > 100 | > 100 |  |  | > 100 | > 100 | > 100 | > 100 | > 100 |  |  | > 100 | > 100 | 50.8 | > 100 | > 100 | > 100 | 
C=CCC1(CN(C)C)CC/C(=C\c2ccc(Cl)cc2)C1=O (configuration not stated) | > 76.2 | > 100 | > 100 | > 100 | 41.9 | > 72.9 | 53.6 | > 100 | 53 | > 100 | > 31.6 | 76.3 | 20.3 | > 100 | > 85.3 | > 79.1 |  |  |  | 
CC(=O)OCC1OC(OC2CC3C(C)(C)C(O)CC[C@]3(C)C3CCC45CC4(CCC5[C@@H](C)CC(O)C(O)C(C)(C)O)[C@]23C)C(O)C(O)C1O (some centres not stated) | > 10 | > 10 | > 10 | > 10 | > 10 | > 10 | > 10 | > 10 | > 10 | > 10 | > 10 | > 10 |  | > 10 | > 10 | > 10 | > 10 | > 10 | > 10 | > 10
C[N+](C)(C)CC1CCC/C1=N\OC(=O)c1ccccc1 (configuration not stated) | > 100 | > 100 |  | > 100 | > 100 | > 100 | > 100 | > 100 | > 100 | > 100 | > 100 | > 100 | > 100 | > 100 | > 100 | > 100 |  |  |  | 
CCOC(=O)Cc1ccc(Nc2nc3ccccc3nc2C(=O)OCC)cc1 | > 100 | > 100 | > 100 | > 100 | > 100 | 74.4 |  | > 100 | > 100 | > 100 | > 100 |  | > 100 | > 100 | > 100 | > 100 | > 100 | > 100 |  | > 100
C=C(Nc1nc2ccc(C)cc2s1)C(=O)C(CC)C(=O)C(CC)CC1C(=O)NC(=O)NC1=O (configuration not stated) | > 100 | > 100 | > 100 | > 100 | > 100 | > 100 |  | > 100 | > 100 | > 100 | > 100 |  |  | > 100 | > 100 | > 100 | > 100 | > 100 | > 100 | > 100
CC(C)(C)OC/C=C(/CO)[C@@H]1C=C[C@H](O)C1 | > 100 | > 100 |  | > 100 |  |  | > 100 | > 100 | > 100 | > 100 |  | > 100 |  | > 100 | > 100 |  | > 100 | > 100 | > 100 | > 100
Cc1nc2ccc(F)cc2c2c1CCN2c1ccc(Cl)cc1 | 54.8 |  | 41.7 | > 100 | 30.5 | 55.7 |  | 34.9 |  | 71.8 | 40 | 13.4 |  | > 100 | > 100 | 12.3 | 26.4 | 19.8 | 30.6 | 33.5
CC1CN=C(N(C(=O)Nc2ccccc2)c2ccc(Cl)c(Cl)c2)S1 (configuration not stated) | > 100 | > 100 | > 100 | > 10 |  |  | > 100 | 93.8 | > 10 | > 10 | > 100 | > 10 | > 100 | > 100 | > 100 | 34.5 | > 100 | > 100 | > 100 | 
CC1(C)OC[C@@H]([C@H](O)C2C=CC(=O)S2)O1 (some centres not stated) | 98.6 | > 100 | > 100 | > 100 |  | 53.5 | 53.4 | 59.3 | 75.2 | 90.4 |  | > 100 |  | 38.8 | > 100 | 45.7 | > 100 | 83.6 | 70 | > 100
CCOc1nnnc2nc[nH]c12 | > 100 | > 100 | > 100 | > 100 | > 100 | > 100 | > 100 | > 100 | > 100 | > 100 | > 100 |  |  | > 100 | > 100 | > 100 | > 100 | > 100 | > 100 | > 100
CC1(C)CC(=O)CC(=Nc2ccc([N+](=O)[O-])cc2)C1 |  | > 100 | > 100 | > 100 | > 100 | > 100 | > 100 | > 100 | > 100 | 31.7 | > 100 | > 100 | 88.5 | > 100 | > 100 | > 100 |  |  |  | 
Cc1ccc(Cl)c2c(=O)c3ccc(N)cc3sc12 |  | 52.8 | > 100 | 47.7 |  | 59.3 | 42.3 | > 100 | 50 |  | 28.7 | 48.6 |  | > 100 | 31.8 | 37.7 | 55.4 | 35 | 74.8 | 
N#Cc1c(-c2ccc(Cl)cc2)c(C#N)c(=O)n(NS(=O)(=O)c2ccccc2)c1O | > 100 | > 100 | > 100 |  | > 100 | 69.6 | 26.2 | > 100 | 71.2 | > 100 | > 100 | > 100 |  | > 100 | > 100 | 32.3 | 42.9 | 93 | 98.2 | > 100
COc1ccc(/C=C(\C(C)=O)C(=O)Nc2ccccc2)cc1 | > 100 | > 100 | > 100 | > 100 | > 100 | > 100 | > 100 | > 100 | > 100 | > 100 | > 100 | > 100 | > 100 | > 100 | > 100 | > 100 |  |  |  | 
CC(C)=CC1CC(=[N+]=[N-])C(=O)C1(C)C (configuration not stated) | > 100 | > 100 | > 100 | > 100 | > 100 | > 31.6 | > 74.6 | > 100 | > 100 | > 100 | > 100 | > 100 | 44.4 | > 100 | > 100 | > 100 |  |  |  | 
C=CN1C(=O)[C@H](Oc2ccccc2)[C@@H]1c1ccccc1 | > 100 | > 100 | > 100 |  | 91.3 | 52.5 | 57 | 33.1 | 91.3 | > 100 | > 100 | > 100 | > 100 | > 100 | > 100 | > 100 |  |  |  | 
COC(=O)[C@@]1(C)/C(=N/NS(=O)(=O)c2ccc(C)cc2)CCC[C@@H]1C |  | > 100 | > 100 | > 100 | > 100 | > 100 | 72.6 | > 100 | > 100 | > 100 | > 100 | > 100 | 43.6 | > 100 | > 100 | > 100 |  |  |  | 
O=C(Cn1c(-c2ccccc2)cc2ccccc21)N1CCCC1 | > 100 | > 100 |  | > 100 | > 100 |  |  | > 100 | > 100 |  | > 100 |  | > 100 | > 100 | > 100 | > 100 | > 100 | > 100 | > 100 | 
CS(=O)(=O)c1ccc(-c2cc(-c3ccc(S(C)(=O)=O)cc3)[n+](-c3cc(-c4ccccc4)c([O-])c(-c4ccccc4)c3)c(-c3ccc(S(C)(=O)=O)cc3)c2)cc1 | > 100 | > 100 | > 100 | > 100 | > 100 | > 100 | > 100 | > 100 | > 100 | > 100 | > 100 | > 100 | > 100 | > 100 | > 100 |  |  |  |  | 
O=C(CSc1c2ccccc2nc2ccccc12)Nc1ccccc1-c1ccccc1NC(=O)CSc1c2ccccc2nc2ccccc12 | > 100 | > 76.6 | > 100 | 31 | 37.2 | 52 | 30.4 | 69.4 | > 54.4 | > 100 | 42.8 | > 30.1 | > 31.6 | > 69.4 | > 81.2 | 28.3 |  |  |  | 
